In ChEMBL document CHEMBL4732271, “Novel Substituted Thiadiazoles as Splicing Modulators for Modulating Splicing of mRNA and Uses Thereof for Treating Diseases” (ACS Med Chem Lett, 2021):

How the values were obtained:
SMN2 pre-mRNA [1] = assay: Modulation of SMN2 mRNA D7 splicing in human spinal muscular atrophy patient fibroblasts incubated for 24 hrs by qPCR analysis; assay type: tissue-based
SMN2 pre-mRNA [2] = assay: Modulation of SMN2 mRNA FL splicing in human spinal muscular atrophy patient fibroblasts assessed as SMN2 protein potency incubated for 48 hrs by mesoscale discovery assay
SMN2 pre-mRNA [3] = assay: Modulation of SMN2 mRNA FL splicing in human spinal muscular atrophy patient fibroblasts incubated for 24 hrs by qPCR analysis; assay type: tissue-based

Row | SMILES | IC50 (SMN2 pre-mRNA [1]) [nM] | EC50 (SMN2 pre-mRNA [2]) [nM] | EC50 (SMN2 pre-mRNA [3]) [nM]
1 | COc1cc(-c2ccc(-c3nnc(N(C4CC4)[C@@H]4C[C@H]5CC[C@H](N5)C4F)s3)c(O)c2)cc(F)n1 (stereo partly drawn) | 0.01 | 0.01 | 16
2 | CN(c1nnc(-c2ccc(-c3cn[nH]c3)cc2O)s1)[C@@H]1C[C@H]2CC[C@H](N2)[C@@H]1F | 0.01 | 0.01 | 0.01
3 | CN(c1nnc(-c2ccc(-c3cnn(C)c3)cc2O)s1)[C@H]1C[C@@H]2CCC[C@@H](N2)[C@H]1F | 0.01 | 0.01 | 16
4 | CN(c1nnc(-c2cc(F)c(-c3cnn(C)c3)cc2O)s1)[C@@H]1C[C@H]2CC[C@H](N2)[C@@H]1F | 0.01 | 0.01 | 16
5 | CN(c1nnc(-c2ccc(-c3cnn(CF)c3)cc2O)s1)[C@@H]1C[C@H]2CC[C@H](N2)[C@@H]1F | 16 | 0.01 | 16
6 | CN(c1nnc(-c2ccc(-c3cnn(C)c3)cc2O)s1)[C@@H]1C[C@H]2CC[C@H](N2)[C@@H]1F | 0.01 | 0.01 | 16
